The text below walks through data of publication PMC3288053 (PLoS ONE, 2012).

One test has as its system epididymis fat tissues. The test is described as follows: Gene and protein expression in epididymis fat tissues of treated DIO mice. The class given is in vivo. The protocol:
Four mice in each group are employed for the determination of gene expression. The total RNA is extracted from epididymis fat tissues (75 mg/mice) with TRIzol reagent, and the cDNA is synthesized using PrimeScript™ RT reagent Kit. Real-time PCR is performed using SYBR Green Real time PCR master mix on DNA Engine Opticon 2 System. The PCR cycle is 94°C for 20 seconds, 60°C for 30 seconds and 72°C for 30 seconds. The primer pairs for the related genes are described in Supplementary Table S2. The epididymis fat is lysed and the supernatant is separated by SDS-PAGE and transferred to polyvinylidene difluoride membranes (Millipore). Membranes are incubated in blocking buffer (BB) containing 5% skimmed milk with 0.5% Tween 20 in Tris-buffered saline and immunoblotted with the related antibodies overnight at 4°C in BB. After incubation, membranes are washed and incubated with horseradish peroxidase-labeled secondary antibodies (Amersham), and then the proteins are detected by SuperSignal West Pico chemiluminescent substrate (Pierce).

For the next test, the system named is 3T3-L1 adipocytes. The test is described as follows: 2-Deoxyglucose uptake in 3T3-L1 adipocytes. In kind it is cell-based. How it is done: 3T3-L1 adipocytes are fully differentiated (the 10th day after MDI stimulation) and seeded into 24-well plate. After incubation with compounds in serum-free medium containing 0.5% BSA for 8 hours, medium is changed to Krebs buffer containing […] insulin and incubated for 30 minutes. In the last 5 minutes, cells are incubated with 2-[^3H]-deoxy-D-glucose. The glucose uptake is stopped by ice-cold PBS, and the cells are then lysed with 0.1% Triton. Finally the radioactivity is calculated by a scintillation counter. Cytochalasin B is used to measure nonspecific uptake, and the value is subtracted from all the data. Radioactivity is normalized by total protein concentration that is measured by BCA kit.

Test [1] deals with GLUT4 in 3T3-L1 adipocytes. The test is described as follows: Western blot of GLUT4 protein level. The class given is cell-based. As to conditions: Rut 20 µM. The protocol:
Insulin sensitizing effects of Rut are investigated in CHO-K1 and 3T3-L1 adipocytes. After incubation with compounds in serum-free medium for indicated time, cells are stimulated with insulin (170 nM for CHO-K1 cells and 17 nM for 3T3-L1 adipocytes) for 5 min, and the stimulation is stopped by ice-cold PBS. The effect of Rut on insulin signaling is also investigated in CHO-K1 cells. In the assay, cells are stimulated with Rut (20 µM, 8 h) or insulin (170 nM, 5 min), and then lysed on ice. GLUT4 protein level is studied in the differentiated 3T3-L1 adipocytes (the 10th day after MDI stimulation). […] The proteins are resolved by SDS-polyacrylamide gel electrophoresis and electro-transferred to polyvinylidene difluoride membranes. The membrane is blocked by 5% skimmed milk and incubated with antibodies. Proteins are visualized by the ECL detecting system.
(In general: In western blotting, separated proteins are transferred to a membrane and probed.)

The target in another test is T1, PTPα (Homo sapiens, UniProt P18433).
T1 construct: pGEX2T-PTPα182–803; GST (N); made in house; host or cells: E. coli BL21 (DE3)
The test is described as follows: PTP enzyme inhibition assay (pNPP substrate). The conditions noted are these: read-out: IC50 PTPα; PTPs 0.3 µM, pNPP 5 mM, 25°C; NI: No inhibition at 100 µM. In kind it is biochemical. How it is done: (§1) The enzymatic activities of the recombinant PTPs are measured at 25°C using pNPP as substrate. The initial velocities of enzymatic reactions are determined by continuously measuring the absorbance at 405 nm every 15 s using a microplate spectrophotometer (Bio-Rad). […] To determine the inhibition type, each concentration of Rut (0, 50 and 75 µM) is incubated with PTP1B (0.3 µM) in reaction buffer (50 mM HEPES, pH7.0, 1 mM EDTA, and 100 mM NaCl) for 10 min and the reactions are initiated by different concentrations of pNPP (0.5–10 mM). The inhibition type is determined using double-reciprocal plots. In determination of the selectivity of Rut against PTPs, the result is referred as no inhibition when 100 µM Rut inhibits no enzyme activity. The same reaction systems are designed for all PTPs including PTP1B.

The target of the next test is T2, PTP1B (Homo sapiens, UniProt P18031).
T2 construct: pGEX4T-1-PTP1B1–321; GST (N); made in house; host or cells: E. coli BL21 (DE3)
T2 sequence (P18031 1-321): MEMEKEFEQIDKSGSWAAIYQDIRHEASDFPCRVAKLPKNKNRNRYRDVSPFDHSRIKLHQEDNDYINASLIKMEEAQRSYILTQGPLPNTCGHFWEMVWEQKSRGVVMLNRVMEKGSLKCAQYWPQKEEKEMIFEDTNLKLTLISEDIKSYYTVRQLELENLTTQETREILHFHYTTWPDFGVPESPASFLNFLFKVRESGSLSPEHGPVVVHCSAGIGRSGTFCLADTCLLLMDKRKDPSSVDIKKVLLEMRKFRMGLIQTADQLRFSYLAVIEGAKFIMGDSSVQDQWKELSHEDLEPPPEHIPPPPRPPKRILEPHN
The test is described as follows: PTP enzyme inhibition assay (pNPP substrate). In kind it is biochemical. The protocol:
as §1

The target in another test is T3, TC-PTP (Homo sapiens, UniProt P17706).
T3 construct: pGEX4T-1-TC-PTP1–288; GST (N); made in house; host or cells: E. coli BL21 (DE3)
The test is described as follows: PTP enzyme inhibition assay (pNPP substrate). The class given is biochemical. The conditions noted are these: PTPs 0.3 µM, pNPP 5 mM, 25°C; NI: No inhibition at 100 µM. The protocol: as §1

For a further test, the target named is T4, LAR (Homo sapiens, UniProt P10586).
T4 construct: pGEX2T-LAR1282–1888; GST (N); made in house; host or cells: E. coli BL21 (DE3)
The test is described as follows: PTP enzyme inhibition assay (pNPP substrate). In kind it is biochemical. As to conditions: read-out: IC50 LAR; PTPs 0.3 µM, pNPP 5 mM, 25°C; NI: No inhibition at 100 µM. How it is done:
as §1

A further test deals with T5, CD45 (Homo sapiens, UniProt P08575).
T5 construct: pGEX2T-CD45_560–1256; GST (N); made in house; host or cells: E. coli BL21 (DE3)
The test is described as follows: PTP enzyme inhibition assay (pNPP substrate). The conditions noted are these: PTPs 0.3 µM, pNPP 5 mM, 25°C; NI: No inhibition at 100 µM. In kind it is biochemical. The protocol: as §1

pIC50: −log10 of the molar value.

T5 sequence (P08575 610-1306 limits assumed): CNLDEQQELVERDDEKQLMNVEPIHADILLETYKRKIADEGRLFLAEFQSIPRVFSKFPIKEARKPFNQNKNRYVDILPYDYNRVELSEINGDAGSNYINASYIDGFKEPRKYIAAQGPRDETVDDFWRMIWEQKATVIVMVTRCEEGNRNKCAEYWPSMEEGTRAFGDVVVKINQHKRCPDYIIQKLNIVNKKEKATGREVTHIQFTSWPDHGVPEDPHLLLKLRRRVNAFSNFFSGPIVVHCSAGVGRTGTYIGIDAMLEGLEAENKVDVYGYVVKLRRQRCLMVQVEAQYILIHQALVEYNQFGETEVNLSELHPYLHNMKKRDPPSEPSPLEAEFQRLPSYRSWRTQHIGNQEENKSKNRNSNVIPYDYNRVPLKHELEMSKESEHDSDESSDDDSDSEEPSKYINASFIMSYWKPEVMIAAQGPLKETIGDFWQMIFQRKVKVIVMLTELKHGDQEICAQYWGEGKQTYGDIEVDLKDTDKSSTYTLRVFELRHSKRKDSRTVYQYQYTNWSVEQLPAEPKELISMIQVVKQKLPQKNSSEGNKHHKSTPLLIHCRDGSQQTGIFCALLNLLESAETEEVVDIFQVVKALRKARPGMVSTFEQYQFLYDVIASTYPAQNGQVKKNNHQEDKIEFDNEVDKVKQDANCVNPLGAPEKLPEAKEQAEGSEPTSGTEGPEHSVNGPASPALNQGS
T4 sequence (P10586 1301-1907 limits assumed): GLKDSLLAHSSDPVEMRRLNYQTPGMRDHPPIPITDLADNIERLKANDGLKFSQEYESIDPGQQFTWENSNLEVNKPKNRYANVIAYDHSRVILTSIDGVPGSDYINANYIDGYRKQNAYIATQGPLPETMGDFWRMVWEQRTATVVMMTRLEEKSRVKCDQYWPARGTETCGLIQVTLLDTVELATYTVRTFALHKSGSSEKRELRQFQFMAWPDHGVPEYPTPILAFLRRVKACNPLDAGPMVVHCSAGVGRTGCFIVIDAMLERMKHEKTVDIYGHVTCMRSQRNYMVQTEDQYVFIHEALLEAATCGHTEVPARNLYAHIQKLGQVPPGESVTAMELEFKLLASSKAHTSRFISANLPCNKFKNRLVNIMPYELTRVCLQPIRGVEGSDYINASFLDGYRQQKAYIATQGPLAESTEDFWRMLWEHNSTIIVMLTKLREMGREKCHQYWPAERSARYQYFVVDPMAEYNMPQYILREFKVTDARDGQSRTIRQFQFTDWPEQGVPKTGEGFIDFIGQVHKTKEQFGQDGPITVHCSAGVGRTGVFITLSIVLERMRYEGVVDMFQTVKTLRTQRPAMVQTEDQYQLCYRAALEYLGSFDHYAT
T3 sequence (P17706 1-288): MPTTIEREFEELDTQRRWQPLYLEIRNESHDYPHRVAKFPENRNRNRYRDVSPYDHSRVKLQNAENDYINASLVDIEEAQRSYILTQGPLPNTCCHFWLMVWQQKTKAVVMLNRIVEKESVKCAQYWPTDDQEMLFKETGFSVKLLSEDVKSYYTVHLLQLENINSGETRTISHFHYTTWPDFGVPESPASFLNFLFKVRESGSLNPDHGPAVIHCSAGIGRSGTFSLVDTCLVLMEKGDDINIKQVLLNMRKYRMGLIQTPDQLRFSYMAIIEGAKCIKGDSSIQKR

Regarding `C=CC(C)(C)c1cc2cc3c(cc2oc1=O)O[C@H](C(C)(C)OC(C)=O)C3` [(+)-Rutamarin], the “insulin receptor (IR) phosphorylation in epididymis fat tissues” value in the test with epididymis fat tissues (Rut 2 mg/kg IP, 2 weeks) is “efficiently improve”. Further, in the test on epididymis fat tissues (Rut 10 mg/kg, epididymis fat tissues), the “mRNA levels of PPARγ:RXRα-regulated genes (pepck, GLUT4 and adiponectin)” value was “efficiently increase”. Further, in the test on epididymis fat tissues (Rut 2 and 10 mg/kg), the “GLUT4 expression in epididymis fat tissues” value is listed as “increases GLUT4 expression”. Moreover, in the test with 3T3-L1 adipocytes (Rut 20 µM, 8 hours), the “glucose uptake without insulin stimulation” value is listed as “improves glucose uptake”. In the test on 3T3-L1 adipocytes (insulin 17 nM, Rut 5–25 µM, C2 10 µM), the insulin-induced glucose uptake entry is recorded as “dose-dependently enhances”. Moreover, the GLUT4 protein level result was “no obvious increment” in test [1] (8th hour) and “potently increases” in test [1] (48 hours). Moreover, the negative-log IC50 (pIC50) (as a rule, −log10 of the IC50, conventionally taken in molar units) at PTPα was less than 4.00; against PTP1B (PTPs 0.3 µM, pNPP 5 mM, 25°C, NI: No inhibition at 100 µM), 5.19; at TC-PTP, 4.57; at LAR it was less than 4.00; against CD45 it was less than 4.00. The “inhibition type (Lineweaver-Burk, double-reciprocal plots)” value against PTP1B (Rut 0, 50 and 75 µM, pNPP 0.5–10 mM) was “competitive inhibitor”.
